Results reported in patent publication US20250120989A1, “BRIDGED TRICYCLIC CARBAMOYLPYRIDONE COMPOUNDS AND USES THEREOF” (priority 2023, published 2025).
Values after ≈ are worked out from the molar mass of the structure shown. Where two headings read alike, the source gives them in different places.

Assays:
[1] = test system: HIV-1 (IIIB); test: microbe, parasite or virus in culture; format: cell-based; settings: read-out: MT4 EC50
[2] = in vitro; settings: human; for CC50 at 5 days: uninfected MT-4 cells
[3] = physchem; settings: 23 °C, thermodynamic from solid; for solubility thermodynamic at 24 h: FaSSIF
[4] = Human immunodeficiency virus 1, MT4, 120 h, HIV-1 (IIIB) replication in MT-4 cells, 5 days, Cell Titer Glo

Q: Which EC50 [1, 4] does the source give for CC1=NO[C@@]2(CC[C@H](C)N3C[C@H]2n2cc(C(=O)NCc4ccc(F)cc4F)c(=O)c(OC(=O)C(C)(C)CCN(CC(=O)O)C(=O)OCOP(=O)(O)O)c2C3=O)C1 [Compound 2, N-(4-(((3′S,5S,7′R)-10′-((2,4-difluorobenzyl)carbamoyl)-3,3′-dimethyl-1′,11′-dioxo-1′,4′,5′,11′-tetrahydro-3′H,4H,7′H-spiro[isoxazole-5,6′-[2,7]methanopyrido[1,2-a][1,4]diazonin]-12′-yl)oxy)-3,3-dimethyl-4-oxobutyl)-N-(((phosphonooxy)methoxy)carbonyl)glycine] here?
A: Its EC50 is 0.00137 µM.

Q: What about the CC50 at 5 days [2] of the same compound?
A: Its CC50 at 5 days is 12.3 µM.

Q: With CC1=NO[C@@]2(CC[C@H](C)N3C[C@H]2n2cc(C(=O)NCc4ccc(F)cc4F)c(=O)c(OC(=O)OCCOP(=O)(O)O)c2C3=O)C1 [Compound 6, (3′S,5S,7′R)-10′-((2,4-difluorobenzyl)carbamoyl)-3,3′-dimethyl-1′,11′-dioxo-1′,4′,5′,11′-tetrahydro-3′H,4H,7′H-spiro[isoxazole-5,6′-[2,7]methanopyrido[1,2-a][1,4]diazonin]-12′-yl (2-(phosphonooxy)ethyl) carbonate] as the compound, how does the EC50 ([1]; Human immunodeficiency virus 1, IIIB, MT4, 120 h) read?
A: The EC50 was 0.00209 µM.

Q: And the CC50 [2]?
A: Its CC50 is 15.2 µM.

Q: With COC1=NO[C@@]2(CC[C@H](C)N3C[C@H]2n2cc(C(=O)NCc4ccc(F)cc4F)c(=O)c(OCOC(=O)OC[C@@H](C)COP(=O)(O)O)c2C3=O)C1 [Compound 71, (((3′S,5S,7′R)-10′-((2,4-difluorobenzyl)carbamoyl)-3-methoxy-3′-methyl-1′,11′-dioxo-1′,4′,5′,11′-tetrahydro-3′H,4H,7′H-spiro[isoxazole-5,6′-[2,7]methanopyrido[1,2-a][1,4]diazonin]-12′-yl)oxy)methyl ((R)-2-methyl-3-(phosphonooxy)propyl) carbonate] as the compound, how does the EC50 [1, 4] read?
A: The EC50 was 0.00504 µM.

Q: What about the CC50 at 5 days [2] of the same compound?
A: Its CC50 at 5 days is 21.3 µM.

Q: With CC1=NO[C@@]2(CC[C@H](C)N3C[C@H]2n2cc(C(=O)NCc4ccc(F)cc4F)c(=O)c(OC(C)OC(=O)OCCOP(=O)(O)O)c2C3=O)C1 (stereo partly drawn) [Compound 5, 1-(((3′S,5S,7′R)-10′-((2,4-difluorobenzyl)carbamoyl)-3,3′-dimethyl-1′,11′-dioxo-1′,4′,5′,11′-tetrahydro-3′H,4H,7′H-spiro[isoxazole-5,6′-[2,7]methanopyrido[1,2-a][1,4]diazonin]-12′-yl)oxy)ethyl (2-(phosphonooxy)ethyl) carbonate] as the compound, how does the EC50 [1, 4] read?
A: The EC50 was 0.00196 µM.

Q: And the CC50 at 5 days [2]?
A: Its CC50 at 5 days is 10.6 µM.

Q: What does the source list for CC1=NO[C@@]2(CC[C@H](C)N3C[C@H]2n2cc(C(=O)NCc4ccc(F)cc4F)c(=O)c(OC(=O)OCC[N+](C)(C)C)c2C3=O)C1 [Compound 16, 2-(((((3′S,5S,7′R)-10′-((2,4-difluorobenzyl)carbamoyl)-3,3′-dimethyl-1′,11′-dioxo-1′,4′,5′,11′-tetrahydro-3′H,4H,7′H-spiro[isoxazole-5,6′-[2,7]methanopyrido[1,2-a][1,4]diazonin]-12′-yl)oxy)carbonyl)oxy)-N,N,N-trimethylethan-1-aminium trifluoroacetic acid]?
A: CC50 at 5 days [2]: 14.1 µM; solubility thermodynamic at 24 h [3]: 2230 µg/mL

Q: What does the source list for CC1=NO[C@@]2(CC[C@H](C)N3C[C@H]2n2cc(C(=O)NCc4ccc(F)cc4F)c(=O)c(OCOC(=O)OCCCCOP(=O)(O)O)c2C3=O)C1 [Compound 34, (((3′S,5S,7′R)-10′-((2,4-difluorobenzyl)carbamoyl)-3,3′-dimethyl-1′,11′-dioxo-1′,4′,5′,11′-tetrahydro-3′H,4H,7′H-spiro[isoxazole-5,6′-[2,7]methanopyrido[1,2-a][1,4]diazonin]-12′-yl)oxy)methyl (4-(phosphonooxy)butyl) carbonate]?
A: CC50 [2]: 50 µM; solubility thermodynamic ([3]; fassif): 4890 µg/mL (≈ 6.86 mM)

Q: With COC1=NO[C@@]2(CC[C@H](C)N3C[C@H]2n2cc(C(=O)NCc4ccc(F)cc4F)c(=O)c(OCOP(=O)(O)O)c2C3=O)C1 [Compound 1, (((3′S,5S,7′R)-10′-((2,4-difluorobenzyl)carbamoyl)-3-methoxy-3′-methyl-1′,11′-dioxo-1′,4′,5′,11′-tetrahydro-3′H,4H,7′H-spiro[isoxazole-5,6′-[2,7]methanopyrido[1,2-a][1,4]diazonin]-12′-yl)oxy)methyl dihydrogen phosphate] as the compound, how does the EC50 [1, 4] read?
A: Its EC50 is 0.00177 µM.

Q: And the CC50 at 5 days [2]?
A: Its CC50 at 5 days is 15.4 µM.

Q: With CC1=NO[C@@]2(CC[C@H](C)N3C[C@H]2n2cc(C(=O)NCc4ccc(F)cc4F)c(=O)c(OCOC(=O)O[C@H](C)COP(=O)(O)O)c2C3=O)C1 [Compound 18, (((3′S,5S,7′R)-10′-((2,4-difluorobenzyl)carbamoyl)-3,3′-dimethyl-1′,11′-dioxo-1′,4′,5′,11′-tetrahydro-3′H,4H,7′H-spiro[isoxazole-5,6′-[2,7]methanopyrido[1,2-a][1,4]diazonin]-12′-yl)oxy)methyl ((R)-1-(phosphonooxy)propan-2-yl) carbonate] as the compound, how does the EC50 [1, 4] read?
A: Its EC50 is 0.00227 µM.

Q: And the CC50 at 5 days [2]?
A: Its CC50 at 5 days is 12.1 µM.

Q: Which EC50 [1, 4] does the source give for CC1=NO[C@@]2(CC[C@H](C)N3C[C@H]2n2cc(C(=O)NCc4ccc(F)cc4F)c(=O)c(OCOC(=O)O[C@@H](C)C[C@H](C)OP(=O)(O)O)c2C3=O)C1 [Compound 30, (((3′S,5S,7′R)-10′-((2,4-difluorobenzyl)carbamoyl)-3,3′-dimethyl-1′,11′-dioxo-1′,4′,5′,11′-tetrahydro-3′H,4H,7′H-spiro[isoxazole-5,6′-[2,7]methanopyrido[1,2-a][1,4]diazonin]-12′-yl)oxy)methyl ((2S,4S)-4-(phosphonooxy)pentan-2-yl) carbonate] here?
A: Its EC50 is 0.00272 µM.

Q: And the CC50 at 5 days [2]?
A: The CC50 at 5 days was 10.3 µM.

Q: With CC1=NO[C@@]2(CC[C@H](C)N3C[C@H]2n2cc(C(=O)NCc4ccc(F)cc4F)c(=O)c(OCOC(=O)CCCCOP(=O)(O)O)c2C3=O)C1 [Compound 20, (((3′S,5S,7′R)-10′-((2,4-difluorobenzyl)carbamoyl)-3,3′-dimethyl-1′,11′-dioxo-1′,4′,5′,11′-tetrahydro-3′H,4H,7′H-spiro[isoxazole-5,6′-[2,7]methanopyrido[1,2-a][1,4]diazonin]-12′-yl)oxy)methyl 5-(phosphonooxy)pentanoate] as the compound, how does the EC50 [1, 4] read?
A: The EC50 was 0.00237 µM.

Q: What about the CC50 at 5 days [2] of the same compound?
A: The CC50 at 5 days was 20.4 µM.

Q: With CC1=NO[C@@]2(CC[C@H](C)N3C[C@H]2n2cc(C(=O)NCc4ccc(F)cc4F)c(=O)c(OCOC(=O)OC(C)C(C)(C)OP(=O)(O)O)c2C3=O)C1 (stereo partly drawn) [Compound 56, (((3′S,5S,7′R)-10′-((2,4-difluorobenzyl)carbamoyl)-3,3′-dimethyl-1′,11′-dioxo-1′,4′,5′,11′-tetrahydro-3′H,4H,7′H-spiro[isoxazole-5,6′-[2,7]methanopyrido[1,2-a][1,4]diazonin]-12′-yl)oxy)methyl (3-methyl-3-(phosphonooxy)butan-2-yl) carbonate] as the compound, how does the solubility thermodynamic at 24 h [3] read?
A: The solubility thermodynamic at 24 h was 4240 µg/mL (≈ 5.84 mM).

Q: With CC1=NO[C@@]2(CC[C@H](C)N3C[C@H]2n2cc(C(=O)NCc4ccc(F)cc4F)c(=O)c(OCOC(=O)C4(CCN(CC(=O)O)C(=O)OCOP(=O)(O)O)CC4)c2C3=O)C1 [Compound 44, N-(2-(1-(((((3′S,5S,7′R)-10′-((2,4-difluorobenzyl)carbamoyl)-3,3′-dimethyl-1′,11′-dioxo-1′,4′,5′,11′-tetrahydro-3′H,4H,7′H-spiro[isoxazole-5,6′-[2,7]methanopyrido[1,2-a][1,4]diazonin]-12′-yl)oxy)methoxy)carbonyl)cyclopropyl)ethyl)-N-(((phosphonooxy)methoxy)carbonyl)glycine] as the compound, how does the EC50 [1, 4] read?
A: The EC50 was 0.00141 µM.

Q: And the CC50 at 5 days [2]?
A: The CC50 at 5 days was 11.1 µM.

Q: Which results are given for CC1=NO[C@@]2(CC[C@H](C)N3C[C@H]2n2cc(C(=O)NCc4ccc(F)cc4F)c(=O)c(OCOC(=O)OC[C@@H](C)COP(=O)(O)O)c2C3=O)C1 [Compound 70, (((3′S,5S,7′R)-10′-((2,4-difluorobenzyl)carbamoyl)-3,3′-dimethyl-1′,11′-dioxo-1′,4′,5′,11′-tetrahydro-3′H,4H,7′H-spiro[isoxazole-5,6′-[2,7]methanopyrido[1,2-a][1,4]diazonin]-12′-yl)oxy)methyl ((R)-2-methyl-3-(phosphonooxy)propyl) carbonate]?
A: EC50 [1, 4]: 0.00286 µM; CC50 at 5 days [2]: 15.3 µM

Q: Which solubility thermodynamic at 24 h [3] does the source give for CC1=NO[C@@]2(CC[C@H](C)N3C[C@H]2n2cc(C(=O)NCc4ccc(F)cc4F)c(=O)c(OCOC(=O)OC(C)(C)C(C)OP(=O)(O)O)c2C3=O)C1 (stereo partly drawn) [Compound 55, (((3′S,5S,7′R)-10′-((2,4-difluorobenzyl)carbamoyl)-3,3′-dimethyl-1′,11′-dioxo-1′,4′,5′,11′-tetrahydro-3′H,4H,7′H-spiro[isoxazole-5,6′-[2,7]methanopyrido[1,2-a][1,4]diazonin]-12′-yl)oxy)methyl (2-methyl-3-(phosphonooxy)butan-2-yl) carbonate] here?
A: Its solubility thermodynamic at 24 h is 4600 µg/mL (≈ 6.33 mM).

Q: What does the source list for COC1=NO[C@@]2(CC[C@H](C)N3C[C@H]2n2cc(C(=O)NCc4ccc(F)cc4F)c(=O)c(OCOC(=O)OC[C@@H](C)OP(=O)(O)O)c2C3=O)C1 [Compound 53, (((3′S,5S,7′R)-10′-((2,4-difluorobenzyl)carbamoyl)-3-methoxy-3′-methyl-1′,11′-dioxo-1′,4′,5′,11′-tetrahydro-3′H,4H,7′H-spiro[isoxazole-5,6′-[2,7]methanopyrido[1,2-a][1,4]diazonin]-12′-yl)oxy)methyl ((R)-2-(phosphonooxy)propyl) carbonate]?
A: EC50 [1, 4]: 0.00196 µM; CC50 at 5 days [2]: 15.2 µM

Q: With CC[C@H](OP(=O)(O)O)[C@H](C)OC(=O)OCOc1c2n(cc(C(=O)NCc3ccc(F)cc3F)c1=O)[C@@H]1CN(C2=O)[C@@H](C)CC[C@]12CC(OC)=NO2 [Compound 74, (((3′S,5S,7′R)-10′-((2,4-difluorobenzyl)carbamoyl)-3-methoxy-3′-methyl-1′,11′-dioxo-1′,4′,5′,11′-tetrahydro-3′H,4H,7′H-spiro[isoxazole-5,6′-[2,7]methanopyrido[1,2-a][1,4]diazonin]-12′-yl)oxy)methyl ((2S,3S)-3-(phosphonooxy)pentan-2-yl) carbonate] as the compound, how does the CC50 at 5 days [2] read?
A: Its CC50 at 5 days is 26.6 µM.
